The results in this text go back to patent US20180071354A1, “SELECTIVE BREEDING METHOD OF ANTITUMOR/ANTICANCER CAMELLIA SINENSIS STRAIN, AND TEA PRODUCT OF SUCH STRAIN” (FUJIAN AGRICULTURE AND FORESTRY UNIVERSITY, priority 2015, published 2018).

What all share (format): cell-based
The test system of assay [1] is human lung cancer cell line A549. The assay can be described thus: In vitro antitumor/anticancer testing (CCK-8), A549. As to conditions: 48 h. How it is done:
(§1) Each of Tea Product 1 and Conventional Tea Product obtained in section A of this example was used to prepare test tea samples according to the method described below. A proper amount of the respective tea product was added into sterile water to prepare a stock solution with a concentration of 100 mg/mL, followed by using a membrane filter with a pore size of 0.22 μm to conduct vacuum filtration and sterilization. The resulting stock solution was diluted with a respective complete medium shown in Table 3 below to form test tea samples with different concentrations. In other words, the thus obtained test tea samples to be used for treating a respective cancer/tumor cell line shown in Table 3 were prepared using the same complete medium as that for the respective cancer/tumor cell line. […] Specifically, each of the aforesaid commercially available agents was subjected to the method described below to prepare comparative test samples. A proper amount of a respective commercially available agent was dissolved in phosphate-buffered saline (PBS) to prepare a stock solution with a concentration of 5 mg/mL, followed by using a membrane filter with a pore size of 0.22 μm to conduct vacuum filtration and sterilization. The resulting stock solution was diluted with a respective complete medium shown in Table 3 below to form comparative test samples with different concentrations. To be specific, the comparative test samples prepared from the respective commercially available agent have the concentrations shown in Table 2 below. The thus obtained comparative test samples to be used for treating a respective cancer/tumor cell line shown in Table 3 were prepared using the same complete medium as that for the respective cancer/tumor cell line. […] The cultivation of each cancer/tumor cell line is described as follows. […] Afterwards, a cell suspension having a cell density of 1.0×10^4 cells/mL was prepared. […] As experimental groups, the tumor/cancer cells of each cell line were treated with the test tea samples prepared from one or more of the tea products and the comparative test samples prepared from one or more of the commercially available agents as obtained in section B of this example (for more detailed information about the tea product(s) and the commercially available product (s) used to treat each cell line, please see Table 4 below). To be specific, 6 to 10 test tea samples prepared from the same tea product and having different concentrations, as well as 6 to 10 comparative test samples prepared from the same commercially available agent and having different concentrations, were utilized to treat the tumor/cancer cells of each cell line. For each experimental group, 6 repetitions of tumor/cancer treatment were performed. For the control group, 100 μL of PBS was added to a well containing the medium and the cancer/tumor cells of the respective cell line. For the blank group, 100 μL of PBS was added to a well containing a complete medium the same as that used for cultivation of the cancer/tumor cells of the respective cell line. After the treatment described above, cultivation was conducted in an incubator (37° C., 100% relative humidity, 5% CO2) for 48 hours. Subsequently, the liquid containing the medium and the sample in the well was removed, and a respective complete medium (shown in Table 3 above) containing 10% CCK-8 (Cell Counting Kit-8)(Dojindo Molecular Technologies, Inc., Cat. No. CK04-13) was added. Cultivation was performed in an incubator (37° C.) for 2 to 4 hours, followed by gently shaking.

Assay [2] relates to human ovarian cancer cell line SK-OV-3. The assay can be described thus: In vitro antitumor/anticancer testing (CCK-8), SK-OV-3. Conditions: 48 h. How it is done: as §1
Assay [3] concerns human glioblastoma cell line U-87MG. Briefly: In vitro antitumor/anticancer testing (CCK-8), U-87MG. Conditions: 48 h. How it is done:
as §1

The subject of assay [4] is human cervical cancer cell line Hela. Briefly: In vitro antitumor/anticancer testing (CCK-8), Hela. As to conditions: 48 h. As for the experimental part: as §1
Assay [5] relates to human leukemia cell line K562. The assay can be described thus: In vitro antitumor/anticancer testing (CCK-8), K562. As to conditions: 48 h, read-out: Percent growth inhibition. How it is done:
Each of Tea Product 1 and Conventional Tea Product obtained in section A of this example was used to prepare test tea samples according to the method described below. A proper amount of the respective tea product was added into sterile water to prepare a stock solution with a concentration of 100 mg/mL, followed by using a membrane filter with a pore size of 0.22 μm to conduct vacuum filtration and sterilization. The resulting stock solution was diluted with a respective complete medium shown in Table 3 below to form test tea samples with different concentrations. In other words, the thus obtained test tea samples to be used for treating a respective cancer/tumor cell line shown in Table 3 were prepared using the same complete medium as that for the respective cancer/tumor cell line.
Specifically, each of the aforesaid commercially available agents was subjected to the method described below to prepare comparative test samples. A proper amount of a respective commercially available agent was dissolved in phosphate-buffered saline (PBS) to prepare a stock solution with a concentration of 5 mg/mL, followed by using a membrane filter with a pore size of 0.22 μm to conduct vacuum filtration and sterilization. The resulting stock solution was diluted with a respective complete medium shown in Table 3 below to form comparative test samples with different concentrations. To be specific, the comparative test samples prepared from the respective commercially available agent have the concentrations shown in Table 2 below. The thus obtained comparative test samples to be used for treating a respective cancer/tumor cell line shown in Table 3 were prepared using the same complete medium as that for the respective cancer/tumor cell line.
The cultivation of each cancer/tumor cell line is described as follows. […] Afterwards, a cell suspension having a cell density of 1.0×10^4 cells/mL was prepared.
As experimental groups, the tumor/cancer cells of each cell line were treated with the test tea samples prepared from one or more of the tea products and the comparative test samples prepared from one or more of the commercially available agents as obtained in section B of this example (for more detailed information about the tea product(s) and the commercially available product (s) used to treat each cell line, please see Table 4 below). To be specific, 6 to 10 test tea samples prepared from the same tea product and having different concentrations, as well as 6 to 10 comparative test samples prepared from the same commercially available agent and having different concentrations, were utilized to treat the tumor/cancer cells of each cell line. For each experimental group, 6 repetitions of tumor/cancer treatment were performed. For the control group, 100 μL of PBS was added to a well containing the medium and the cancer/tumor cells of the respective cell line. For the blank group, 100 μL of PBS was added to a well containing a complete medium the same as that used for cultivation of the cancer/tumor cells of the respective cell line.
After the treatment described above, cultivation was conducted in an incubator (37° C., 100% relative humidity, 5% CO2) for 48 hours. Subsequently, the liquid containing the medium and the sample in the well was removed, and a respective complete medium (shown in Table 3 above) containing 10% CCK-8 (Cell Counting Kit-8)(Dojindo Molecular Technologies, Inc., Cat. No. CK04-13) was added. Cultivation was performed in an incubator (37° C.) for 2 to 4 hours, followed by gently shaking.

Regarding `N.N.[Cl][Pt][Cl]` [Cisplatin], the Percent growth inhibition in assay [1] (0.125 μg/mL) is 6.73%; in assay [1] (0.25 μg/mL) it was 8.55%; in assay [1] (0.5 μg/mL) it was 14.21%; in assay [1] (1 μg/mL) it was 29.60%; in assay [1] (3 μg/mL), 88.98%; in assay [1] (4 μg/mL), 57.57%. Further, the Percent growth inhibition was found to be 36.60% in assay [1] (7 μg/mL); 97.45% in assay [1] (16 μg/mL); 5.63% in assay [2] (0.0625 μg/mL); 6.86% in assay [2] (0.125 μg/mL); 13.36% in assay [2] (0.25 μg/mL); 28.16% in assay [2] (0.5 μg/mL). For the same compound, the Percent growth inhibition in assay [2] (1 μg/mL) was determined as 51.92%; in assay [2] (2 μg/mL), 65.87%; in assay [2] (4 μg/mL) it was 81.38%; in assay [2] (8 μg/mL), 88.36%; in assay [2] (16 μg/mL) it was 83.65%; in assay [3] (0.0625 μg/mL) it was 2.27%. In addition, the Percent growth inhibition in assay [3] (0.125 μg/mL) came to 1.91%; in assay [3] (0.25 μg/mL) it was 0.10%; in assay [3] (0.5 μg/mL), 2.72%; in assay [3] (1 μg/mL), 20.84%; in assay [3] (2 μg/mL), 43.00%; in assay [3] (4 μg/mL), 63.60%. In addition, the Percent growth inhibition in assay [3] (8 μg/mL) was 85.10%; in assay [3] (16 μg/mL), 76.01%; in assay [4] (0.0625 μg/mL), −3.05%; in assay [4] (0.125 μg/mL), −7.31%; in assay [4] (0.25 μg/mL) it was −11.93%; in assay [4] (0.5 μg/mL), −33.69%. The Percent growth inhibition in assay [4] (1 μg/mL) is −29.75%; in assay [4] (2 μg/mL), 16.62%; in assay [4] (4 μg/mL), 90.1%; in assay [4] (8 μg/mL), 98.3%; in assay [4] (16 μg/mL), 98.98%. The IC50 result in assay [1] (A549) is recorded as “IC50 (μg/mL) = 2.503”; in assay [2] (SK-OV-3), “IC50 (μg/mL) = 1.112”; in assay [3] (U-87MG) it was “IC50 (μg/mL) = 2.751”; in assay [4] (Hela) it was “IC50 (μg/mL) = 2.656”.

One may read the inhibition as the percentage by which the read-out fell short of the control. As to `Cc1ccc(NC(=O)c2ccc(CN3CCN(C)CC3)cc2)cc1Nc1nccc(-c2cccnc2)n1` [Glivec], the inhibition at 0.0184 µg/mL in assay [5] (0.0184 μg/mL) stood at 17.7%. For the same compound, the inhibition at 0.0369 µg/mL in assay [5] (0.0369 μg/mL) is 35.7%. Also, in assay [5] (0.0737 μg/mL), the inhibition at 0.0737 µg/mL was determined as 55.3%. For the same compound, the inhibition at 0.1474 µg/mL in assay [5] (0.1474 μg/mL) was found to be 66.2%. Moreover, in assay [5] (0.2949 μg/mL), the inhibition at 0.2949 µg/mL was 81.5%. Besides, the inhibition at 0.5897 µg/mL in assay [5] (0.5897 μg/mL) was found to be 88.9%.
